According to US20170147743A1, “RAPID IDENTIFICATION OF PHARMACOLOGICAL TARGETS AND ANTI-TARGETS FOR DRUG DISCOVERY AND REPURPOSING” (UNIVERSITY OF MIAMI, priority 2015, published 2017):

Legend:
[1] = test system: representative target kinases; assay: Target/anti-target activity matrix from kinase profiling; format: biochemical; details: FIG. 3B matrix; seven targets
Procedure: (§1) Activity Profiling of Screened Kinase Inhibitors. In vitro profiling of kinase inhibitors against a panel of 190 kinases was performed. Out of bound values were cropped, whereby values below 0% were adjusted to 0%, and values above 100% were adjusted to 100%.
(§2) FIG. 3B illustrates a resultant target-anti-target activity matrix developed by the identification system (e.g., at process 114). The target/anti-target matrix identifies protein target groups separately from protein anti-target groups, where each group type may be ranked according to various factors, such as biologic activity and inhibition bias. Engagement of the protein targets in the matrix promotes a biological activity; and engagement of the protein anti-targets in the matrix impedes the biological activity. In the particular example of FIG. 3B, representative protein kinases for each kinase group and the compounds that inhibit at least one member in the group by ≧10% are shown. […] Compounds are arranged top to bottom in order of decreasing maximum % NTL (right-hand color scale). […] RO0480500-002 accordingly produced % NTL up to 400%, well above the % NTL of any of the other compound. […]

[2] = test system: representative anti-target kinases; assay: as above; format: biochemical; details: FIG. 3B matrix
Procedure: as §1, §2

[3] = test system: rat embryonic (E18) hippocampal neurons; assay: Neurite outgrowth screening assay with hippocampal neurons; format: cell-based; details: neurite total length as percentage of control; for NTL_32 (neurite outgrowth, % NTL): concentration 32 (unit not given); for NTL_160 (neurite outgrowth, % NTL): concentration 160 (unit not given); for NTL_800 (neurite outgrowth, % NTL): concentration 800 (unit not given); for NTL_4000 (neurite outgrowth, % NTL): concentration 4000 (unit not given); for NTL_20000 (neurite outgrowth, % NTL): concentration 20000 (unit not given)
Excerpt: Neurite Outgrowth Screening Assay with Hippocampal Neurons. Kinase inhibitor libraries were screened in a neurite outgrowth assay. Compounds were screened on rat embryonic (E18) hippocampal neurons cultured for 2 DIV on poly-D-lysine. Plates were fixed, immunostained, and imaged. Screened compounds were classified based on their effects on neurite total length, expressed as percentage of control (% NTL), which served as the biological activity referenced in FIG. 1, for this example. Hits were defined as compounds whose biologic activity (% NTL) reached at least 130% in two independent experiments (hits: % NTL 130; non-hits: % NTL<130). That is, in this example an NTL of 130 was used as the threshold measure (see, e.g., FIGS. 8 and 9). […] A stratification (assurance) step was performed by eliminating from subsequent analysis compounds that had biologic activity within 1 standard deviation of the hit threshold (130±15) (see, e.g., FIG. 6A). Compounds that reduced viable cell count (biologic activity) by more than 40% at concentrations below 800 nM were considered to be toxic and also excluded from subsequent analysis.

Row | inhibition of representative target kinases [1] | inhibition of representative anti-target kinases [2] | SMILES | NTL_32 (neurite outgrowth, % NTL) [3] [%] | NTL_160 (neurite outgrowth, % NTL) [3] [%] | NTL_800 (neurite outgrowth, % NTL) [3] [%] | NTL_4000 (neurite outgrowth, % NTL) [3] [%] | NTL_20000 (neurite outgrowth, % NTL) [3] [%]
1 | inhibits the two target kinases | does not inhibit any | COc1cc(N2CCC(N3CCN(C)CC3)CC2)ccc1Nc1ncnc(Nc2ccccc2S(=O)(=O)C(C)C)n1 [ASP3026] |  |  |  |  | 
2 |  |  | c1ccc(-c2cnc(Nc3ccc(OCCN4CCCC4)cc3)s2)cc1 [Flt-3 Inhibitor III] | 227.0293 | 250.8023 | 291.5283 | 105.129 | 48.44
3 |  |  | NS(=O)(=O)c1cccc(N/C=C2\C(=O)Nc3ccc(S(=O)(=O)Cc4c(Cl)cccc4Cl)cc32)c1 [GSK398099A] | 100.7527 | 86.99 | 91.2121 | 234.4329 | 357.738
4 |  |  | NC[C@H](CC1CCCCC1)NC(=O)c1ccc(-c2ccnc3[nH]ccc23)s1 [GSK1581428A] | 229.399 | 335.5001 | 262.488 | 92.84 | 36.79
5 |  |  | N#Cc1ccc(-c2cc(-c3c[nH]nc3-c3ccccn3)ccn2)cc1 [GW693028X] | 114.3254 | 101.7908 | 99.07 | 110.3241 | 296.1224
6 |  |  | N#CC(=C(N)Sc1ccc(N)cc1)c1ccccc1C(F)(F)F [MEK1/2 Inhibitor] | 109.3381 | 101.2957 | 104.668 | 120.1756 | 286.068
7 |  |  | Cl.O=S(=O)(c1cccc2c(I)cccc12)N1CCCNCC1 [ML-7, Hydrochloride] | 193.8632 | 288.4679 | 285.3279 | 269.3169 | 70.23
